Target: T1, NPY Y2 receptor (Homo sapiens, UniProt P49146)
T1 construct: endogenous in cells; host or cells: KAN-Ts cells (membrane preparation)
T1 sequence (P49146 1-381): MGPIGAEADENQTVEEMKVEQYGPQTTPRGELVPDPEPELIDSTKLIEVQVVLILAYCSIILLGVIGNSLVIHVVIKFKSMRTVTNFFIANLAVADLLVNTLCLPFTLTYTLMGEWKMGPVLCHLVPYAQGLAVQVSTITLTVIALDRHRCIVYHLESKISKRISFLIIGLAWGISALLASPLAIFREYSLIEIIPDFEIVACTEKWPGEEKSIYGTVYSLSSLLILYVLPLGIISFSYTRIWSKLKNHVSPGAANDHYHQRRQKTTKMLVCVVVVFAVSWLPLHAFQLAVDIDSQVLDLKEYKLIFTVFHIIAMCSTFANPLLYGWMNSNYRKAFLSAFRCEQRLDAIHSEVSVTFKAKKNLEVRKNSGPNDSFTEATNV
Experiment: Neuropeptide Y2 radioligand binding assay ([125I]PYY, KAN-Ts cell membranes)
Conditions: membranes of KAN-Ts cells endogenously expressing Y2 receptors; [125I]PYY 80 pM; 1 h at rt; read-out: IC50 (μM), NPY Y2 binding
Procedure: KAN-Ts endogenously expressing Y2 receptors were used for the radioligand binding assay. Cells were grown to confluence on 150 cm^2 tissue culture plates, washed with phosphate-buffered saline (PBS), and scraped into 50 mL tubes. After centrifugation, the supernatant was aspirated, and the pellets frozen and stored at −80° C. Thawed pellets were homogenized with a polytron tissue grinder for 15 sec in 20 mM Tris-HCl, 5 mM EDTA. The homogenate was centrifuged at 800×g for 5 min and the collected supernatant was recentrifuged at 25000×g for 25 min. The resulting pellet was resuspended in binding buffer (20 mM HEPES, 120 mM NaCl, 0.22 mM KH2PO4, 1.3 mM CaCl2, 0.8 mM MgSO4). Membranes were incubated with [^125I]PYY (80 pM) in the presence or absence of test compound for 1 h at rt. The reaction was stopped by filtration through GF/C filter plates pre-soaked in 0.3% polyethylenimine and subsequently washed with Tris 50 mM, 5 mM EDTA buffer. Plates were dried for 1 h in a 55° C. oven, scintillation fluid was added and the radioactivity was counted in a Packard TopCount. Specific binding to the NPY receptor subtypes was determined by radioactivity that was bound in the presence of […] NPY. Each binding experiment was repeated three to eight times, each in duplicate. IC50 values (i.e. concentration of unlabelled peptide or antagonist required to compete for 50% of specific binding to the radioligand) were determined using the GraphPad Prism software (GraphPad Software Inc., San Diego Calif.) with a fit to a sigmoidal dose response curve. Apparent K values were as K=IC50/(1+C/KD), where C is concentration of the radioligand.

Row | Compound | IC50 [µM]
1 | CC[C@H](C)c1nc(-c2ccc(N3CCN(C(C(=O)N(CC)CC)c4ccccc4)CC3)c(F)c2)no1 (stereo in doubt) [Compound 97, 2-{4-[4-(5-sec-Butyl-[1,2,4]oxadiazol-3-yl)-2-fluoro-phenyl]-piperazin-1-yl}-N,N-diethyl-2-phenyl-acetamide] | 0.37
2 | CCc1nc(-c2ccc(N3CCN(C(C(=O)N(CC)CC)c4ccccc4)CC3)c(F)c2)no1 (stereo not drawn) [Compound 3, N,N-Diethyl-2-{4-[4-(5-ethyl-[1,2,4]oxadiazol-3-yl)-2-fluoro-phenyl]-piperazin-1-yl}-2-phenyl-acetamide] | 0.24
3 | CCCc1nc(-c2ccc(N3CCN(C(C(=O)N(CC)CC)c4ccccc4)CC3)c(F)c2)no1 (stereo not drawn) [Compound 68, N,N-Diethyl-2-{4-[2-fluoro-4-(5-propyl-[1,2,4]oxadiazol-3-yl)-phenyl]-piperazin-1-yl}-2-phenyl-acetamide] | 0.52
4 | CCC(CC)c1nc(-c2ccc(N3CCN(C(C(=O)N(CC)CC)c4ccccc4)CC3)c(F)c2)no1 (stereo not drawn) [Compound 70, N,N-Diethyl-2-(4-{4-[5-(1-ethyl-propyl)-[1,2,4]oxadiazol-3-yl]-2-fluoro-phenyl}-piperazin-1-yl)-2-phenyl-acetamide] | 0.48
5 | CCc1noc(-c2ccc(N3CCN(C(C(=O)N(CC)CC)c4ccccc4)CC3)c(F)c2)n1 (stereo not drawn) [Compound 71, N,N-Diethyl-2-{4-[4-(3-ethyl-[1,2,4]oxadiazol-5-yl)-2-fluoro-phenyl]-piperazin-1-yl}-2-phenyl-acetamide] | 0.097
6 | CCN(CC)C(=O)C(c1ccccc1)N1CCN(c2ccc(-c3noc(C(C)(C)C)n3)cc2F)CC1 (stereo not drawn) [Compound 75, 2-{4-[4-(5-tert-Butyl-[1,2,4]oxadiazol-3-yl)-2-fluoro-phenyl]-piperazin-1-yl}-N,N-diethyl-2-phenyl-acetamide] | 0.6
7 | CCN(CC)C(=O)C(c1ccccc1)N1CCN(c2ccc(-c3noc(CC(C)(C)C)n3)cc2F)CC1 (stereo not drawn) [Compound 79, 2-(4-{4-[5-(2,2-Dimethyl-propyl)-[1,2,4]oxadiazol-3-yl]-2-fluoro-phenyl}-piperazin-1-yl)-N,N-diethyl-2-phenyl-acetamide] | 6.3
8 | CCN(CC)C(=O)C(c1ccccc1)N1CCN(c2ccc(-c3nc(C(C)C)no3)cc2F)CC1 (stereo not drawn) [Compound 80, N,N-Diethyl-2-{4-[2-fluoro-4-(3-isopropyl-[1,2,4]oxadiazol-5-yl)-phenyl]-piperazin-1-yl}-2-phenyl-acetamide] | 0.041
9 | CCN(CC)C(=O)C(c1ccccc1)N1CCN(c2ccc(-c3noc(C4CC4)n3)cc2F)CC1 (stereo not drawn) [Compound 88, 2-{4-[4-(5-Cyclopropyl-[1,2,4]oxadiazol-3-yl)-2-fluoro-phenyl}-piperazin-1-yl]-N,N-diethyl-2-phenyl-acetamide] | 0.27
10 | CCN(CC)C(=O)C(c1ccccc1)N1CCN(c2ccc(-c3noc(C4CCC4)n3)cc2F)CC1 (stereo not drawn) [Compound 89, 2-{4-[4-(5-Cyclobutyl-[1,2,4]oxadiazol-3-yl)-2-fluoro-phenyl]-piperazin-1-yl}-N,N-diethyl-2-phenyl-acetamide] | 0.85
11 | CCN(CC)C(=O)C(c1ccccc1)N1CCN(c2ccc(-c3noc(CF)n3)cc2F)CC1 (stereo not drawn) [Compound 105, N,N-Diethyl-2-{4-[2-fluoro-4-(5-fluoromethyl-[1,2,4]oxadiazol-3-yl)-phenyl]-piperazin-1-yl}-2-phenyl-acetamide] | 0.16
12 | CCN(CC)C(=O)C(c1ccccc1)N1CCN(c2ccc(-c3noc(C(F)(F)F)n3)cc2F)CC1 (stereo not drawn) [Compound 118, N,N-Diethyl-2-{4-[2-fluoro-4-(5-trifluoromethyl-[1,2,4]oxadiazol-3-yl)-phenyl]-piperazin-1-yl}-2-phenyl-acetamide] | 0.18
13 | CCN(CC)C(=O)C(c1ccccc1)N1CCN(c2ccc(C3=N[C@H](C(=O)OC)CO3)cc2F)CC1 (stereo partly drawn) [Compound 124, 2-{4-[4-(Diethylcarbamoyl-phenyl-methyl)-piperazin-1-yl]-3-fluorophenyl}-4,5-dihydro-oxazole-4-carboxylic acid methyl ester] | 1
14 | CCN(CC)C(=O)C(c1ccccc1)N1CCN(c2ccc(-c3nc(C(=O)OC)co3)cc2F)CC1 (stereo not drawn) [Compound 129, 2-{4-[4-(Diethylcarbamoyl-phenyl-methyl)-piperazin-1-yl]-3-fluorophenyl}-oxazole-4-carboxylic acid methyl ester] | 1.9
15 | CCOC(=O)c1nc(-c2ccc(N3CCN(C(C(=O)N(CC)CC)c4ccccc4)CC3)c(F)c2)no1 (stereo not drawn) [Compound 130, 3-{4-[4-(Diethylcarbamoyl-phenyl-methyl)-piperazin-1-yl]-3-fluoro-phenyl}-[1,2,4]oxadiazole-5-carboxylic acid ethyl ester] | > 10
16 | CCc1cnc(-c2ccc(N3CCN(C(C(=O)N(CC)CC)c4ccccc4)CC3)c(F)c2)o1 (stereo not drawn) [Compound 133, N,N-Diethyl-2-{4-[4-(5-ethyl-oxazol-2-yl)-2-fluoro-phenyl]-piperazin-1-yl}-2-phenyl-acetamide] | 0.46
17 | CCN(CC)C(=O)C(c1ccccc1)N1CCN(c2ccc(-c3noc(C(N)=O)n3)cc2F)CC1 (stereo not drawn) [Compound 144, 3-{4-[4-(Diethylcarbamoyl-phenyl-methyl)-piperazin-1-yl]-3-fluorophenyl}-[1,2,4]oxadiazole-5-carboxylic acid amide] | 1.1
18 | CCN(CC)C(=O)C(c1ccccc1)N1CCN(c2ccc(-c3noc(C#N)n3)cc2F)CC1 (stereo not drawn) [Compound 147, 2-{4-[4-(5-Cyano-[1,2,4]oxadiazol-3-yl)-2-fluoro-phenyl]-piperazin-1-yl}-N,N-diethyl-2-phenyl-acetamide] | 4.1
19 | CCN(CC)C(=O)C(c1ccccc1)N1CCN(c2ccc(-c3noc(/C(N)=N/O)n3)cc2F)CC1 (stereo not drawn) [Compound 149, N,N-Diethyl-2-(4-{2-fluoro-4-[5-(N-hydroxycarbamimidoyl)-[1,2,4]oxadiazol-3-yl]-phenyl}-piperazin-1-yl)-2-phenyl-acetamide] | 0.99
20 | CCN(CC)C(=O)C(c1ccccc1)N1CCN(c2ccc(-c3nnc(C)o3)cc2F)CC1 (stereo not drawn) [Compound 150, N,N-Diethyl-2-{4-[2-fluoro-4-(5-methyl-[1,3,4]oxadiazol-2-yl)-phenyl]-piperazin-1-yl}-2-phenyl-acetamide] | 0.42
21 | CCN(CC)C(=O)C(c1ccccc1)N1CCN(c2ccc(-c3noc(C(=O)O)n3)cc2F)CC1 (stereo not drawn) [Compound 151, 3-{4-[4-(Diethylcarbamoyl-phenyl-methyl)-piperazin-1-yl]-3-fluorophenyl}-[1,2,4]oxadiazole-5-carboxylic acid] | > 10
22 | CCc1nnc(-c2ccc(N3CCN(C(C(=O)N(CC)CC)c4ccccc4)CC3)c(F)c2)o1 (stereo not drawn) [Compound 152, N,N-Diethyl-2-{4-[4-(5-ethyl-[1,3,4]oxadiazol-2-yl)-2-fluoro-phenyl]-piperazin-1-yl}-2-phenyl-acetamide] | 0.3
23 | CCN(CC)C(=O)C(c1ccccc1)N1CCN(c2ccc(-c3nnc(C(C)C)o3)cc2F)CC1 (stereo not drawn) [Compound 154, N,N-Diethyl-2-{4-[2-fluoro-4-(5-isopropyl-[1,3,4]oxadiazol-2-yl)-phenyl]-piperazin-1-yl}-2-phenyl-acetamide] | 0.22
24 | CCN(CC)C(=O)C(c1ccccc1)N1CCN(c2ccc(-c3ncon3)cc2F)CC1 (stereo not drawn) [Compound 158, N,N-Diethyl-2-[4-(2-fluoro-4-[1,2,4]oxadiazol-3-yl-phenyl)-piperazin-1-yl]-2-phenyl-acetamide] | 1.5
25 | CCN(CC)C(=O)C(c1ccccc1)N1CCN(c2ccc(-c3noc(=O)n3C)cc2F)CC1 (stereo not drawn) [Compound 176, N,N-Diethyl-2-{4-[2-fluoro-4-(4-methyl-5-oxo-4,5-dihydro-[1,2,4]oxadiazol-3-yl)-phenyl]-piperazin-1-yl}-2-phenyl-acetamide] | 1.9
26 | CCN(CC)C(=O)C(c1ccccc1)N1CCN(c2ccc(-c3noc(SC)n3)cc2F)CC1 (stereo not drawn) [Compound 177, N,N-Diethyl-2-{4-[2-fluoro-4-(5-methylsulfanyl-[1,2,4]oxadiazol-3-yl)-phenyl]-piperazin-1-yl}-2-phenyl-acetamide] | 0.51
27 | CC(C)c1noc(-c2ccc(N3CCN(C(C(=O)N(C)C)c4ccccc4)CC3)c(F)c2)n1 (stereo not drawn) [Compound 180, 2-{4-[2-Fluoro-4-(3-isopropyl-[1,2,4]oxadiazol-5-yl)-phenyl]-piperazin-1-yl}-N,N-dimethyl-2-phenyl-acetamide] | 0.15
